Data on 32 compounds can be found in US7452887B2, “Quinoline- and isoquinoline-based compounds exhibiting ATP-utilizing enzyme inhibitory activity, and compositions, and uses thereof” (Amphora Discovery Corporation, priority 2004, dated 2008).

Molecules are shown by their SMILES.

In the test the target is MAPKAPK2 (Homo sapiens, UniProt P49137). The test is described as follows: HTS ATP-utilizing enzyme assay, off-chip mobility-shift (Caliper HTS 250). The test is classed as biochemical. Particulars: test compound 10 μM, kinase listed = active (greater than six-sigma from the mean activity of inactive compounds). An excerpt:
The following procedures describe the reagent and plate preparation for a HTS of an ATP-utilizing enzyme, such as a protein kinase, run in an off-chip mobility-shift assay format. The following provides an HTS protocol for running a protein kinase HTS screen on a Caliper HTS 250 microfluidics system. The following parameters are dependent on the protein kinase used and can be determined by one skilled in the art as part of a typical assay development process. For example, the peptide substrate used can be identified from the current literature, by screening a peptide library of potential protein kinase substrates, or by other applicable means accepted in the field.
The following table provides typical screen assay parameters appropriate for a Caliper HTS 250 microfluidics system.
The reagents and buffers listed in the following table are generally applicable for developing and running an HTS screen on a human protein kinase using the Caliper HTS 250 system.
The following reagents were prepared using the previously described buffers.
A 2× Master Buffer solution was prepared by combining 200 mL of 1 M HEPES, pH 7.5, 2 mL of 10% Triton X-100, 20 mL of 10% BSA, and 778 mL of H2O.
A TCB Buffer solution was prepared by combining 125 mL of 2× Master Buffer, 10 mL of 0.5 M EDTA, 6.25 mL of 4% coating reagent, 1.01 mL of 100% DMSO, and 107.74 mL H2O.
Assays to determine the kinase inhibitory activity of compounds of the present disclosure were performed using a Caliper HTS 250 microfluidics device, Greiner U-bottom assay plates, a Multidrop for transfer of reagents, and Biomek FX (AMNCBM03) software. Initially, 2.4 μL of a 1 mM solution of a test compound in 100% DMSO was added to a well of the Greiner U-bottom plate. A single Greiner U-bottom plate having 24×16 wells could include multiple test compounds. […] Using the Biomek FX, 10 μL of 0.5 M EDTA was added by the span-8 to wells, indicated as 100% Control and 2.4 μL of 100% DMSO was added by the span-8 to wells, indicated as 0% Control. […] The total reaction volume in each well was 25 μL, and the concentration of the test compound was 10 μM. The assay plate was incubated for 2.5 hrs at 20° C. to 22° C. […] The inhibition of the ATP-utilizing enzyme, such as a particular protein kinase, was determined by measuring the ratio of the peptide substrate to phosphorylated product for each well of the assay plate using the Caliper HTS 250 system.
The use of six-sigma statistical limits represents a conservative method for declaring potential hits among targets. The six-sigma activity, as well as the mean population activity, can be different for each target enzyme.

Sequence of MAPKAPK2 (P49137 whole entry): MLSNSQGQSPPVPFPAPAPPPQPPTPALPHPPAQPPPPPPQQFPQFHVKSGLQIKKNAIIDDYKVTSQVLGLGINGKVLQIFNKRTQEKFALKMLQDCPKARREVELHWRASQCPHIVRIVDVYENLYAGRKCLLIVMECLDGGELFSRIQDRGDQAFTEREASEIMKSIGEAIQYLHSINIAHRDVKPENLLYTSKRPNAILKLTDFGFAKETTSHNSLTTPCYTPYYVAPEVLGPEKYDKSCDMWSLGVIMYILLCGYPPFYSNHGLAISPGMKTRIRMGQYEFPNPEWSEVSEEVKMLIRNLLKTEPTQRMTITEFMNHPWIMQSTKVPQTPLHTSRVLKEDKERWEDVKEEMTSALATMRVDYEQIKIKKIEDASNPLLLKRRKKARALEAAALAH

As for `CN(C)C1CCN(c2ccc(Nc3ccnc4ccc(-c5cncc(C(=O)O)c5)cc34)cc2)C1` (centres unmarked) [5-(4-(4-(3-(dimethylamino)pyrrolidin-1-yl)phenylamino)quinolin-6-yl)nicotinic acid], the Activity entry was “MAPKAPK2”.

Turning to `CN1CCN(c2ccc(Nc3ccnc4ccc(-c5ccc(C(F)(F)F)cc5C(F)(F)F)cc34)cc2)CC1` [6-(2,4-bis(trifluoromethyl)phenyl)-N-(4-(4-methylpiperazin-1-yl)phenyl)quinolin-4-amine], the Activity entry is on record as “MAPKAPK2”.

For `CN1CCN(c2ccc(Nc3ccnc4ccc(-c5cc(Cl)ccc5Cl)cc34)cc2)CC1` [6-(2,5-dichlorophenyl)-N-(4-(4-methylpiperazin-1-yl)phenyl)quinolin-4-amine], the Activity entry is “MAPKAPK2”.

With `CN(C)Cc1ccccc1-c1ccc2nccc(Nc3ccc(N4CCN(C)CC4)cc3)c2c1` [6-(2-((dimethylamino)methyl)phenyl)-N-(4-(4-methylpiperazin-1-yl)phenyl)quinolin-4-amine], the Activity result is on record as “MAPKAPK2”.

For `CN(C)C1CCN(c2ccc(Nc3ccnc4ccc(-c5ccc(Cl)c(Cl)c5)cc34)cc2)C1` (centres unmarked) [6-(3,4-dichlorophenyl)-N-(4-(3-(dimethylamino)pyrrolidin-1-yl)phenyl)quinolin-4-amine], the Activity entry is “MAPKAPK2”.

On to `CN1CCN(c2ccc(Nc3ccnc4ccc(-c5cc(C(F)(F)F)cc(C(F)(F)F)c5)cc34)cc2)CC1` [6-(3,5-bis(trifluoromethyl)phenyl)-N-(4-(4-methylpiperazin-1-yl)phenyl)quinolin-4-amine], for which the Activity result is recorded as “MAPKAPK2”.

With `CN(C)C1CCN(c2ccc(Nc3ccnc4ccc(-c5cccc(OCc6ccccc6)c5)cc34)cc2)C1` (centres unmarked) [6-(3-(benzyloxy)phenyl)-N-(4-(3-(dimethylamino)pyrrolidin-1-yl)phenyl)quinolin-4-amine], the Activity entry is recorded as “MAPKAPK2”.

For `Cc1ccc(-c2ccc3nccc(Nc4ccc(N5CCC(N(C)C)C5)cc4)c3c2)cc1Cl` (centres unmarked) [6-(3-chloro-4-methylphenyl)-N-(4-(3-(dimethylamino)pyrrolidin-1-yl)phenyl)quinolin-4-amine], the Activity entry is “MAPKAPK2”.

On to `CN(C)C1CCN(c2ccc(Nc3ccnc4ccc(-c5cccc(Cl)c5)cc34)cc2)C1` (centres unmarked) [6-(3-chlorophenyl)-N-(4-(3-(dimethylamino)pyrrolidin-1-yl)phenyl)quinolin-4-amine], for which the Activity entry was “MAPKAPK2”.

With `CN(C)C1CCN(c2ccc(Nc3ccnc4ccc(-c5ccc6[nH]c(=O)sc6c5)cc34)cc2)C1` (centres unmarked) [6-(4-(4-(3-(dimethylamino)pyrrolidin-1-yl)phenylamino)quinolin-6-yl)benzo[d]thiazol-2(3H)-one], the Activity result is “MAPKAPK2”.

As to `CCN(CC)c1ccc(-c2ccc3nccc(Nc4ccc(N5CCC(N(C)C)C5)cc4)c3c2)cc1` (centres unmarked) [6-(4-(diethylamino)phenyl)-N-(4-(3-(dimethylamino)pyrrolidin-1-yl)phenyl)quinolin-4-amine], the Activity result is given as “MAPKAPK2”.

As for `CN(C)C1CCN(c2ccc(Nc3ccnc4ccc(-c5ccc(OC(F)F)cc5)cc34)cc2)C1` (centres unmarked) [6-(4-(difluoromethoxy)phenyl)-N-(4-(3-(dimethylamino)pyrrolidin-1-yl)phenyl)quinolin-4-amine], the Activity result is recorded as “MAPKAPK2”.

Turning to `CN(C)C1CCN(c2ccc(Nc3ccnc4ccc(-c5ccc(Cl)c(F)c5)cc34)cc2)C1` (centres unmarked) [6-(4-chloro-3-fluorophenyl)-N-(4-(3-(dimethylamino)pyrrolidin-1-yl)phenyl)quinolin-4-amine], the Activity result is “MAPKAPK2”.

As for `COc1cc(-c2ccc3nccc(Nc4ccc(N5CCC(N(C)C)C5)cc4)c3c2)ccc1Cl` (centres unmarked) [6-(4-chloro-3-methoxyphenyl)-N-(4-(3-(dimethylamino)pyrrolidin-1-yl)phenyl)quinolin-4-amine], the Activity entry was “MAPKAPK2”.

In the case of `Cc1cc(-c2ccc3nccc(Nc4ccc(N5CCC(N(C)C)C5)cc4)c3c2)ccc1Cl` (centres unmarked) [6-(4-chloro-3-methylphenyl)-N-(4-(3-(dimethylamino)pyrrolidin-1-yl)phenyl)quinolin-4-amine], the Activity entry is given as “MAPKAPK2”.

Take `CN1CCN(c2ccc(Oc3ccnc4ccc(-c5ccc(Cl)cc5)cc34)cc2)CC1` [6-(4-chlorophenyl)-4-(4-(4-methylpiperazin-1-yl)phenoxy)quinoline]: the Activity entry was “MAPKAPK2”.

As for `CCN(CC)C1CCN(c2ccc(Nc3ccnc4ccc(-c5ccc(Cl)cc5)cc34)cc2)C1` (centres unmarked) [6-(4-chlorophenyl)-N-(4-(3-(diethylamino)pyrrolidin-1-yl)phenyl)quinolin-4-amine], the Activity entry is recorded as “MAPKAPK2”.

Consider `CN(C)C1CCN(c2ccc(Nc3ccnc4ccc(-c5ccc(Cl)cc5)cc34)cc2)C1` (centres unmarked) [6-(4-chlorophenyl)-N-(4-(3-(dimethylamino)pyrrolidin-1-yl)phenyl)quinolin-4-amine], for which the Activity result is on record as “MAPKAPK2”.

For the compound `CN1CCN(c2ccc(Nc3ccnc4ccc(-c5ccc(Cl)cc5)cc34)cn2)CC1` [6-(4-chlorophenyl)-N-(6-(4-methylpiperazin-1-yl)pyridin-3-yl)quinolin-4-amine], the Activity result is on record as “MAPKAPK2”.

Regarding `CCCN(c1ccc(N2CCN(C)CC2)cc1)c1ccnc2ccc(-c3ccc(OC)cc3)cc12` [6-(4-methoxyphenyl)-N-(4-(4-methylpiperazin-1-yl)phenyl)-N-propylquinolin-4-amine], the Activity result is “MAPKAPK2”.

Regarding `CCCN1CCN(c2ccc(Nc3ccnc4ccc(-c5ccc(OC)cc5)cc34)cc2)CC1` [6-(4-methoxyphenyl)-N-(4-(4-propylpiperazin-1-yl)phenyl)quinolin-4-amine], the Activity entry was “MAPKAPK2”.

Regarding `CN1CCN(c2ccc(Nc3ccnc4ccc(-c5ccc(Cl)s5)cc34)cc2)CC1` [6-(5-chlorothiophen-2-yl)-N-(4-(4-methylpiperazin-1-yl)phenyl)quinolin-4-amine], the Activity entry is “MAPKAPK2”.

In the case of `Cc1cc(-c2ccc3nccc(Nc4ccc(N5CCC(N(C)C)C5)cc4)c3c2)cnc1Cl` (centres unmarked) [6-(6-chloro-5-methylpyridin-3-yl)-N-(4-(3-(dimethylamino)pyrrolidin-1-yl)phenyl)quinolin-4-amine], the Activity entry is given as “MAPKAPK2”.

Consider `CN(C)C1CCN(c2ccc(Nc3ccnc4ccc(-c5ccc(Cl)nc5)cc34)cc2)C1` (centres unmarked) [6-(6-chloropyridin-3-yl)-N-(4-(3-(dimethylamino)pyrrolidin-1-yl)phenyl)quinolin-4-amine], for which the Activity entry is listed as “MAPKAPK2”.

Consider `CN(C)C1CCN(c2ccc(Nc3ccnc4ccc(-c5csc6ccccc56)cc34)cc2)C1` (centres unmarked) [6-(benzo[b]thiophen-3-yl)-N-(4-(3-(dimethylamino)pyrrolidin-1-yl)phenyl)quinolin-4-amine], for which the Activity result is reported as “MAPKAPK2”.

For the compound `CN(C)C1CCN(c2ccc(Nc3ccnc4ccc(-c5ccc6c(c5)OCO6)cc34)cc2)C1` (centres unmarked) [6-(benzo[d][1,3]dioxol-5-yl)-N-(4-(3-(dimethylamino)pyrrolidin-1-yl)phenyl)quinolin-4-amine], the Activity result is recorded as “MAPKAPK2”.

Consider `CN(C)[C@@H]1CCN(c2ccc(Nc3ccnc4ccc(-c5ccc(C#N)cc5)cc34)cc2)C1` [(R)-4-(4-(4-(3-(dimethylamino)pyrrolidin-1-yl)phenylamino)quinolin-6-yl)benzonitrile], for which the Activity result is “MAPKAPK2”.

Regarding `CN(C)[C@@H]1CCN(c2ccc(Nc3ccnc4ccc(-c5ccc(Cl)cc5)cc34)cc2)C1` [(R)-6-(4-chlorophenyl)-N-(4-(3-(dimethylamino)pyrrolidin-1-yl)phenyl)quinolin-4-amine], the Activity result is listed as “MAPKAPK2”.

Consider `CN(C)[C@@H]1CCN(c2ccc(Nc3ccnc4ccc(-c5ccc6ccccc6c5)cc34)cc2)C1` [(R)-N-(4-(3-(dimethylamino)pyrrolidin-1-yl)phenyl)-6-(naphthalen-2-yl)quinolin-4-amine], for which the Activity result is “MAPKAPK2”.

Regarding `CN(C)[C@H]1CCN(c2ccc(Nc3ccnc4ccc(-c5ccc(C#N)cc5)cc34)cc2)C1` [(S)-4-(4-(4-(3-(dimethylamino)pyrrolidin-1-yl)phenylamino)quinolin-6-yl)benzonitrile], the Activity entry is on record as “MAPKAPK2”.

Consider `CN(C)[C@H]1CCN(c2ccc(Nc3ccnc4ccc(-c5ccc(Cl)cc5)cc34)cc2)C1` [(S)-6-(4-chlorophenyl)-N-(4-(3-(dimethylamino)pyrrolidin-1-yl)phenyl)quinolin-4-amine], for which the Activity entry is reported as “MAPKAPK2”.

As to `CN(C)[C@H]1CCN(c2ccc(Nc3ccnc4ccc(-c5ccc6ccccc6c5)cc34)cc2)C1` [(S)-N-(4-(3-(dimethylamino)pyrrolidin-1-yl)phenyl)-6-(naphthalen-2-yl)quinolin-4-amine], the Activity result is reported as “MAPKAPK2”.
